Reference: publication PMC8330742, “New benzothieno[2,3-c]pyridines as non-steroidal CYP17 inhibitors: design, synthesis, anticancer screening, apoptosis induction, and in silico ADME profile studies” (Journal of Enzyme Inhibition and Medicinal Chemistry, 2021)
Read-outs that look alike come from different tables or passages of the source.

Assays:
BT-549 = assay: NCI-60 SRB screen; format: cell-based, human; details: Homo sapiens, single dose 10^−5 M, read-out: Growth inhibition (%)
A498 = assay: NCI-60 SRB screen; format: cell-based, human; details: Homo sapiens, single dose 10^−5 M, read-out: Growth inhibition (%)
MDA-MB-231/ATCC = assay: NCI-60 SRB screen; format: cell-based, human; details: Homo sapiens, single dose 10^−5 M, read-out: Growth inhibition (%)
PC-3 = assay: NCI-60 SRB screen; format: cell-based, human; details: Homo sapiens, single dose 10^−5 M, read-out: Growth inhibition (%)
[1] = tested on: renal cancer cell line (UO-31); assay: MTT cytotoxicity assay; format: cell-based, human
Method: (§1) The MTT method for monitoring in vitro cytotoxicity was used with multiwell plates. Three human cell lines, namely prostate cancer cell line (PC-3), renal cancer cell line (UO-31), and breast cancer cell line (MCF-7) were obtained from the American Type Culture Collection ATCC, Manassas, VA, USA). The cells were trypsinized and seeded in 96 well plates with a density of 1.2 − 1.8 × 10,000 cells/well for 24 h at 37 °C. After treating the cells with five concentrations of compound 5c (0.01, 0.1, 1, 10, 100 µM), an MTT solution (Sigma Co., St. Louis, MO, USA) (5 mg/mL in phosphate buffer solution) was applied to each well and […]. The plates were cultivated in 5% CO2 for 4 h at 37 °C. Successively, the remaining formazan crystals were dissolved in 100 µl of DMSO, and the absorbance was determined with the ROBONIK P2000 spectrophotometer at a wavelength of 570 nm. The obtained values were analysed using Gen5 software (BioTek, UK). The proliferation percentage in each treated cell line was standardised based on their control wells. Both tests have been conducted in triplicate. The IC50 values were calculated using sigmoidal dose-response curve fitting models. […] Each test included a blank containing a complete medium without cells.

[2] = tested on: breast cancer cell line (MCF-7); assay: MTT cytotoxicity assay; format: cell-based, human
Method: as §1

[3] = tested on: prostate cancer cell line (PC-3); assay: MTT cytotoxicity assay; format: cell-based, human
Method: as §1

T-47D = assay: NCI-60 SRB screen; format: cell-based, human; details: Homo sapiens, T47D, single dose 10^−5 M, read-out: Growth inhibition (%)
MDA-MB-468 = assay: NCI-60 SRB screen; format: cell-based, human; details: Homo sapiens, single dose 10^−5 M, read-out: Growth inhibition (%)
SK-OV-3 = assay: NCI-60 SRB screen; format: cell-based, human; details: Homo sapiens, single dose 10^−5 M, read-out: Growth inhibition (%)
OVCAR-5 = assay: NCI-60 SRB screen; format: cell-based, human; details: Homo sapiens, single dose 10^−5 M, read-out: Growth inhibition (%)
DU-145 = assay: NCI-60 SRB screen; format: cell-based, human; details: Homo sapiens, single dose 10^−5 M, read-out: Growth inhibition (%)
MCF7 = assay: NCI-60 SRB screen; format: cell-based, human; details: Homo sapiens, read-out: Growth inhibition (%)
RPMI-8226 = assay: NCI-60 SRB screen; format: cell-based; details: Homo sapiens, single dose 10^−5 M, read-out: Growth inhibition (%)
SNB-19 = assay: NCI-60 SRB screen; format: cell-based; details: Homo sapiens; single dose 10^−5 M; SNB-19, CNS cancer; read-out: Growth inhibition (%)
U251 = assay: NCI-60 SRB screen; format: cell-based, human; details: Homo sapiens, U-251; single dose 10^−5 M; U251, CNS cancer; read-out: Growth inhibition (%)
SF-539 = assay: NCI-60 SRB screen; format: cell-based, human; details: Homo sapiens; single dose 10^−5 M; SF-539, CNS cancer; read-out: Growth inhibition (%)
SNB-75 = assay: NCI-60 SRB screen; format: cell-based, human; details: Homo sapiens; single dose 10^−5 M; SNB-75, CNS cancer; read-out: Growth inhibition (%)
[4] = single dose 10^−5 M, MCF-7, Breast cancer

COc1ccc(C2NC(=O)C(C#N)c3c2sc2c(F)cccc32)c(OC)c1 (centres unmarked) [Compound 5a, 1-(2,4-Dimethoxyphenyl)-4-cyano-8-fluoro-1,2-dihydro[1]benzothieno [2,3-c]pyridin-3(4H)-one]
inhibition at 10 µM (BT-549; BT-549): 78.6%
inhibition at 10 µM (A498; A498): 74.8%
inhibition at 10 µM (MDA-MB-231/ATCC; MDA-MB-231, MDAMB231/ATCC): 27.3%
inhibition at 10 µM (PC-3; PC-3): 43.2%
melting point: 100 to 102 °C
potency compared to staurosporine [1]: weak activity
potency compared to staurosporine [2]: moderate activity
potency compared to staurosporine [3]: moderate activity
inhibition at 10 µM (T-47D): 38.3%
inhibition at 10 µM (MDA-MB-468; MDA-MB-468): 75.7%
inhibition at 10 µM (SK-OV-3; SK-OV-3): 49.3%
inhibition at 10 µM (OVCAR-5; OVCAR-5): 1.24%
inhibition at 10 µM (DU-145; DU-145): 9.51%
inhibition at 10 µM (MCF7; MCF-7, single dose 10^−5 M): 75.5%

N#CC1=C(N2CCCCC2)NC(c2cccc([N+](=O)[O-])c2)c2sc3c(F)cccc3c21 (centres unmarked) [Compound 8f, 4-Cyano-3-(piperidin-1-yl)-8-fluoro-1-(3-nitrophenyl)-1,2-dihydro [1]benzothieno[2,3-c]pyridine]
inhibition at 10 µM (BT-549; BT-549, Breast cancer): 1.03%
inhibition at 10 µM (A498; A498, Renal cancer): -0.87%
inhibition at 10 µM (RPMI-8226; RPMI-8226, Leukaemia): 14.9%
inhibition at 10 µM (MDA-MB-231/ATCC; MDA-MB 231/ATCC, Breast cancer): 15.1%
inhibition at 10 µM (PC-3; PC-3, Prostate cancer): 8.87%
melting point: 280 to 282 °C
inhibition at 10 µM (SNB-19): 1.38%
inhibition at 10 µM (U251): -6.11%
inhibition at 10 µM (T-47D; Breast cancer): 2.45%
inhibition at 10 µM (MDA-MB-468; MDA-MB-468, Breast cancer): -8.03%
inhibition at 10 µM (SF-539): 6.49%
inhibition at 10 µM (SK-OV-3; SK-OV-3, Ovarian cancer): 7.22%
inhibition at 10 µM (OVCAR-5; OVCAR-5, Ovarian cancer): 5.19%
inhibition at 10 µM (DU-145; DU-145, Prostate cancer): -8.32%
inhibition at 10 µM (MCF7; [4]): -0.95%
inhibition at 10 µM (SNB-75): 5.45%

N#CC1=C(Cl)NC(c2cccc([N+](=O)[O-])c2)c2sc3c(F)cccc3c21 (centres unmarked) [Compound 7b, 3-Chloro-4-cyano-8-fluoro-1-(3-nitrophenyl)-1,2-dihydro[1]benzothieno [2,3-c]pyridine]
inhibition at 10 µM (BT-549; BT-549, Breast cancer): -2.93%
inhibition at 10 µM (A498; A498, Renal cancer): 19.7%
inhibition at 10 µM (RPMI-8226; RPMI-8226, Leukaemia): 12.7%
inhibition at 10 µM (MDA-MB-231/ATCC; MDA-MB 231/ATCC, Breast cancer): 7.25%
inhibition at 10 µM (PC-3; PC-3, Prostate cancer): 3.5%
melting point: 140 to 142 °C
inhibition at 10 µM (SNB-19): -0.67%
inhibition at 10 µM (U251): -7.36%
inhibition at 10 µM (T-47D; Breast cancer): -9.14%
inhibition at 10 µM (MDA-MB-468; MDA-MB-468, Breast cancer): -7.25%
inhibition at 10 µM (SF-539): 3.78%
inhibition at 10 µM (SK-OV-3; SK-OV-3, Ovarian cancer): 2.24%
inhibition at 10 µM (OVCAR-5; OVCAR-5, Ovarian cancer): -3.54%
inhibition at 10 µM (DU-145; DU-145, Prostate cancer): -14.2%
inhibition at 10 µM (MCF7; [4]): 8.22%
inhibition at 10 µM (SNB-75): 8.28%

O=[N+]([O-])c1cccc(C2NC(N3CCOCC3)=C(Cl)c3c2sc2c(F)cccc32)c1 (centres unmarked) [Compound 8b, 4-Chloro-3-(4-morpholino)-8-fluoro-1-(3-nitrophenyl)-1,2-dihydro [1]benzothieno[2,3-c]pyridine]
inhibition at 10 µM (BT-549; BT-549, Breast cancer): 4.09%
inhibition at 10 µM (A498; A498, Renal cancer): 10.4%
inhibition at 10 µM (RPMI-8226; RPMI-8226, Leukaemia): 16.2%
inhibition at 10 µM (MDA-MB-231/ATCC; MDA-MB 231/ATCC, Breast cancer): 18.8%
inhibition at 10 µM (PC-3; PC-3, Prostate cancer): 14.5%
melting point: 175 to 177 °C
inhibition at 10 µM (SNB-19): 1.4%
inhibition at 10 µM (U251): 6.85%
inhibition at 10 µM (T-47D; Breast cancer): 20.8%
inhibition at 10 µM (MDA-MB-468; MDA-MB-468, Breast cancer): 1.73%
inhibition at 10 µM (SF-539): 6.36%
inhibition at 10 µM (SK-OV-3; SK-OV-3, Ovarian cancer): -1.6%
inhibition at 10 µM (OVCAR-5; OVCAR-5, Ovarian cancer): 8.49%
inhibition at 10 µM (DU-145; DU-145, Prostate cancer): -1.71%
inhibition at 10 µM (MCF7; [4]): 21%
inhibition at 10 µM (SNB-75): 10.4%

COc1ccc(C2NC(=O)C(C#N)c3c2sc2c(F)cccc32)cc1 (centres unmarked) [Compound 5b, 4-Cyano-8-fluoro-1-(4-methoxyphenyl)-1,2-dihydro[1]benzothieno[2,3-c] pyridin-3(4H)-one]
inhibition at 10 µM (BT-549; BT-549): 44.6%
inhibition at 10 µM (A498; A498): 68.8%
inhibition at 10 µM (RPMI-8226; RPMI-8226): 36.9%
inhibition at 10 µM (MDA-MB-231/ATCC; MDA-MB-231, MDAMB231/ATCC): 28.8%
inhibition at 10 µM (PC-3; PC-3): 50.6%
melting point: 103 to 105 °C
potency compared to staurosporine [1]: moderate activity
potency compared to staurosporine [2]: moderate activity
potency compared to staurosporine [3]: moderate activity
inhibition at 10 µM (T-47D): 19.9%
inhibition at 10 µM (MDA-MB-468; MDA-MB-468): 66.3%
inhibition at 10 µM (SK-OV-3; SK-OV-3): 36.9%
inhibition at 10 µM (OVCAR-5; OVCAR-5): 14.4%
inhibition at 10 µM (DU-145; DU-145): 35.2%
inhibition at 10 µM (MCF7; MCF-7, single dose 10^−5 M): 67.4%
